Measurements taken from publication PMC9139979, “Features of ZED1227: The First-In-Class Tissue Transglutaminase Inhibitor Undergoing Clinical Evaluation for the Treatment of Celiac Disease” (Cells, 2022).

Biological target: T1, hTG6 (Homo sapiens, UniProt O95932)
T1 construct: purchased Zedira T021
T1 sequence (O95932 1-706): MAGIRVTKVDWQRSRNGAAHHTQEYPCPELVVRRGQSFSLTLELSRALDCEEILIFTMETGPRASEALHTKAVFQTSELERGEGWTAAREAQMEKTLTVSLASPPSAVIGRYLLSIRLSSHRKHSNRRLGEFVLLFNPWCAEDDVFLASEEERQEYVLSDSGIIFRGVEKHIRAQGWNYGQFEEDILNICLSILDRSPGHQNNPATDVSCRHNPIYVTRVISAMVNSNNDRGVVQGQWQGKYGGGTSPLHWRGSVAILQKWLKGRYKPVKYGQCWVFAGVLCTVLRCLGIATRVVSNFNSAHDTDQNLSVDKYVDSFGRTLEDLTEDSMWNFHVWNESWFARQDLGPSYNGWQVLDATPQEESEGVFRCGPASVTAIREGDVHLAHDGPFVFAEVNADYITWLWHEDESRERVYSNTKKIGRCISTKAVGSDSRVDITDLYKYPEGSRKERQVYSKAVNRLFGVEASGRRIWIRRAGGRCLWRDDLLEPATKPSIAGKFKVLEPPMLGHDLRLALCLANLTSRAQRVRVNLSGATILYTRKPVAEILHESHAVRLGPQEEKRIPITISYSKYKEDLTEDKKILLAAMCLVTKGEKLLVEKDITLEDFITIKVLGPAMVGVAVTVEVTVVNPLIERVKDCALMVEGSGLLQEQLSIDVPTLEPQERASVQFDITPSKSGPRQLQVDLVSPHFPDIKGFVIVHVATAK
Test: Fluorescent transamidation assay (DCC-assay), hTG6
Assay type: biochemical
Method: Inhibition data were determined using the fluorescent transamidation assay (dansylcadaverine incorporation into glutamine-donor substrate N,N-dimethyl casein, DCC-assay). Briefly, to 15 μL of ZED1227 solution (dissolved and serial diluted in 2% (v/v) DMSO/assay buffer), 285 μL assay buffer [47.5 mM tris(hydroxymethyl)aminomethane, 9.5 mM CaCl2, 9.5 mM glutathione, 2.4% (v/v) glycerol, 190 mM NaCl, pH 8.0] containing dansylcadaverine (15.9 μM), N,N-dimethyl casein (3.8 μM) and the indicated recombinant transglutaminase enzyme [0.95 μg/mL hTG1 (T035), 0.81 μg/mL hTG2 (T022), 0.83 μg/mL hTG6 (T021), all from Zedira] were added, mixed and the kinetic measurement started immediately. […]
Fluorescence emission was continuously monitored for 30 min at λem = 500 nm (λex = 330 nm) and 37 °C using a CLARIOstar fluorescence plate reader (BMG Labtech, Ortenberg, Germany). […] The respective IC50 (and IC90 for TG2) values were calculated by non-linear regression using the MARS software package (BMG Labtech). […]
To facilitate comparability during lead structure optimization and to roughly estimate concentrations needed at the target site, the apparent IC50 values (calculated by four-parameter non-linear fit by MARS software) for irreversible inhibitors are more instructive and are therefore reported. […]

CCC(CC)CNC(=O)Cn1cccc(NC(=O)[C@H](CC/C=C/C(=O)OC)NC(=O)c2cncn2C)c1=O [ZED1227, (S,E)-Methyl 7-(1-(2-(2-ethylbutylamino)-2-oxoethyl)-2-oxo-1,2-dihydropyridin-3-ylamino)-6-(1-methyl-1H-imidazole-5-carboxamido)-7-oxohept-2-enoate]
Selectivity hTG6 versus hTG2 (ratio of app. IC50 values): 122 fold
IC50 (recombinant, transamidation assay, read-out: App. IC50 hTG6): 6.44 µM
